# Data: PMC11251039, “Harnessing cholesterol uptake of malaria parasites for therapeutic applications” (EMBO Molecular Medicine, 2024)
# Several values for one entry are separate records, joined by “and”; a condition that tells them apart may be missing. Equal entries are not always repeated.
# Experiments:
# [1] = system: P. falciparum stage V gametocytes; assay: P. falciparum gametocyte viability assay (MitoTracker, flow cytometry), stage V; format: cell-based, Plasmodium falciparum; details: 48 h
# Experimental: Gametocyte assays commenced seven days (stage III–IV) or ten days (stage V) post-invasion. […]
# Plasmodium falciparum Gametocyte Viability Assays:
# Asexual P. falciparum parasites were induced to form gametocytes as described (21).
# Synchronized trophozoite-stage parasites at 2% parasitaemia were incubated overnight and […]
# haematocrit maintained at 4%. On the subsequent day (designated as day 0) of gametocytogenesis, the culture containing early ring-stage parasites was first purified by sorbitol synchronisation to remove asynchronous trophozoites, and passed through a magnetic field in a sterile MACS® column in a SuperMACSTM II magnet to remove remaining late-stage parasites or later-stage gametocytes (negative selection). The culture medium was supplemented with 50 mM N-acetyl-D-glucosamine to inhibit asexual parasite proliferation, and changed daily. Sorbitol treatment was performed on Day 1, 5, and 6 to further remove asexual parasites. Gametocytes were magnetically enriched (positive selection) in a sterile column with a SuperMACSTM II magnet and eluted in culture media with 50 mM N-acetyl-D-glucosamine. These gametocytes were incubated overnight at 37 °C under microaerophilic conditions, and purity was assessed by examination under a light microscope (400× […]
# Gametocyte viability was assessed as described by Ridgway et al. (21) with modifications.
# Compounds or solvent controls (DMSO) were serially diluted across 96-well plates in culture media supplemented with 50 mM N-acetyl-D-glucosamine. Culture media without compound was used as a negative control. […]
# control to determine background gametocyte fluorescence. Stage III-IV gametocytes (Day 7) or stage V (day 10) gametocytes were concentrated and added to the plate with 200 µL per well. The plate was incubated for 48 hours at 37 °C under humid microaerophilic conditions.
# Parasites were then stained with 500 nM MitoTrackerTM Deep Red FM and 5 μg/ml Hoechst […]
# cytometer as described above. […]
# excluded. Live (positive) and dead (negative) gametocytes were differentiated by […]
# percentage of each was calculated. […]
# [2] = system: human hepatoma cells (Huh7); assay: Human hepatoma viability assay (CellTiter-Blue); format: cell-based; details: for Huh7 viability, dose-response data points (Figure 3F): replicate data points, listed as BC5B
# Experimental: Huh7 hepatoma viability assays were conducted in the same manner as the P. berghei assays, with metabolic capacity (indicating viability) measured with a fluorescence microplate reader after incubation with CellTiter-Blue® (Promega) for 3 h.
# Appendix Fraser/Curtis et al. […]
# Human Hepatoma Viability Assays:
# The Huh7 hepatoma cell line (ATCC) was maintained under routine culture conditions in Dulbecco's Modified Eagle Medium (DMEM) containing 3.7 g/L NaHCO3 supplemented with 10% foetal bovine serum (FBS), 100 units/mL penicillin, and 100 μg/mL streptomycin at 37 °C in a humidified 5% CO2 incubator.
# Viability assays were performed in parallel to the P. berghei growth inhibition. 10,000 Huh7 cells were seeded in 96-well and dark-sided microplates (Greiner Bio One) and cultured at 37°C, 5% CO2 and 80% humidity. The next day, the media was replaced with compounds or solvent controls (DMSO) serially diluted in culture media. Media was partially replaced with new drug dilutions over the following two days. After 48 hours, CellTiter-Blue® (Promega) was added according to the manufacturer’s instructions and incubated for 3 hours. Fluorescence intensity was measured with 530/25 ex and 590/20 em in a Synergy HTX plate reader (Agilent).
# [3] = system: P. berghei liver stages; assay: Plasmodium berghei liver stage growth inhibition assay (luminescence, in Huh7 cells); details: listed as BC5B; for P. berghei liver stage growth, dose-response data points (Figure 3A): replicate data points
# Experimental: Growth inhibition or cell viability were assessed by incubation with a serial dilution of test compounds, solvent controls (DMSO, ethanol, ethyl acetate), or culture media alone in 96-well plates, with detection of fluorescence, luminescence, or absorbance in microplate readers after 24–96 h unless otherwise specified.
# Huh7 cells were seeded at a density of 10,000 cells per well of a 96-well plate, or 20,000 cells per collagen-coated coverslip. After 24 h, test compounds were added the wells were inoculated with P. berghei liver stage sporozoites dissected from infected A. stephensi salivary glands with 5000–10,000 sporozoites per well or 10,000–20,000 sporozoites per coverslip. Uninfected wells served as a control for background luminescence. Luminescence signal was measured 48 h post-invasion by addition of 1:1 ONE-Glo^TM substrate (Promega) with a luminescence microplate reader. Coverslips were fixed, stained, and imaged, with all parasites on each coverslip imaged and delineated as described (Petersen et al, [2017]) using Fiji ImageJ (Schindelin et al, [2012]). Data are presented as a percentage of the size or parasite number of the solvent control to normalize for differences between experiments.
# Growth inhibition data were normalised by subtracting background fluorescence, luminescence, absorbance, or percentage of cells from a no-growth or no-viability control (high drug concentration, no-parasite control, or time = 0 measurement as specified), and expressed as a percentage of the growth or cell percentage in the negative control (culture media alone or solvent control) at the indicated timepoint (or to the highest measurement reached during the assay for Fig. EV3).
# Plasmodium berghei ANKA Bergreen (22) or GFP-Luc (RMgm-29) (23), respectively
# expressing green fluorescent protein (GFP) or a GFP-Luciferase fusion protein, were
# maintained under routine conditions in SWR/J Mus musculus mice and Anopheles stephensi
# Growth inhibition of P. berghei liver-stages was investigated after infection of human
# hepatoma cells (Huh7) and subsequent growth for 48 hours at 37° C, 5% CO2 and 80%
# humidity. The day prior to infection, 10,000 Huh7 cells were seeded in dark-sided 96-well
# microplates (Greiner Bio One). On the day of infection, compounds or solvent controls
# (DMSO) were serially diluted in culture media and 5,000 – 10,000 Bergreen or GFP-Luc
# sporozoites were added per well following dissection from infected A. stephensi salivary
# glands. Uninfected wells served as control for background luminescence. To promote invasion,
# the plates were centrifuged at 1,550 g for 5 minutes. After 60 minutes, the media was
# completely replaced with fresh, prewarmed media with the matching drug concentrations.
# Media was partially replaced with new drug dilutions over the following two days. 48 hours
# post-infection, luminescence signal was measured by addition of 1:1 ONE-GloTM substrate
# (Promega) to the wells, followed by detection at 300 – 700 nm using a Synergy HTX plate
compound,measurement,setting,value
COc1cc(NC(C)CCCNC(=O)CCC(=O)O[C@H]2CC[C@H]3[C@@H]4CC=C5C[C@@H](O)CC[C@]5(C)[C@H]4CC[C@]23C)c2ncccc2c1 (stereo partly drawn) [C-17-PQ],Fold reduction in IC50 compared to primaquine alone,[1],> 2 fold
same,viability at 3.125 µM,"[1]; Plasmodium falciparum, read-out: Gametocyte stage V viability, percentage of control, 3.125000000 uM, 48 h, replicate values, source data Fig. 2D",74.7%
same,IC50,"[1]; Plasmodium falciparum, read-out: IC50, P. falciparum gametocyte stage V inhibition",6.8 µM
same,"Huh7 viability, dose-response data points (Figure 3F)","[2]; 0.015241580 uM, 0.0152416 µM",98.89 and 98.22 and 98.39 and 94.42 and 103 and 100.2 and 102.1 and 98.78
same,"Huh7 viability, dose-response data points (Figure 3F)","[2]; 0.045724740 uM, 0.0457247 µM",96.51 and 98.69 and 94.1 and 96.38 and 90.79 and 82.31 and 84.01 and 89.64
same,"Huh7 viability, dose-response data points (Figure 3F)","[2]; 0.137174210 uM, 0.137174 µM",106.8 and 96.95 and 95.92 and 94.98 and 96.42 and 101.8 and 95.52 and 109.1
same,"Huh7 viability, dose-response data points (Figure 3F)","[2]; 0.411522630 uM, 0.411523 µM",95.23 and 97.59 and 96.23 and 88.28 and 94.64 and 96.4 and 105 and 96.39
same,"Huh7 viability, dose-response data points (Figure 3F)","[2]; 1.234567900 uM, 1.23457 µM",95.71 and 98.77 and 99.42 and 84.3 and 74.81 and 88.03 and 77.15 and 83 and 86.37
same,"Huh7 viability, dose-response data points (Figure 3F)","[2]; 3.703703700 uM, 3.7037 µM",88.28 and 89.97 and 90.65 and 52.83 and 57.73 and 57.82 and 45.17 and 51.57 and 42.91
same,"Huh7 viability, dose-response data points (Figure 3F)","[2]; 11.111111100 uM, 11.1111 µM",75.95 and 74.95 and 78.75 and 46.5 and 49.1 and 49.17 and 39.05 and 40.11 and 38.75
same,"Huh7 viability, dose-response data points (Figure 3F)","[2]; 33.333333300 uM, 33.3333 µM",79.29 and 78.52 and 76.32 and 47.53 and 46.72 and 48.69 and 34.13 and 38.39 and 36.44
same,"Huh7 viability, dose-response data points (Figure 3F)",[2]; 100.000000000 uM,80.41 and 81.45 and 81.11 and 48.76 and 54.16 and 52.59 and 35.21 and 39.74 and 37.9
same,IC50,"[2]; Homo sapiens, Huh-7, 48 h, read-out: IC50, human hepatoma inhibition (viability)",> 50 µM
same,"P. berghei liver stage growth, dose-response data points (Figure 3A)",[3]; 0.015241580 uM,99.66 and 97.59 and 102.8 and 91.81 and 95.85 and 112.3 and 109.1 and 88.24 and 102.7
same,"P. berghei liver stage growth, dose-response data points (Figure 3A)",[3]; 0.045724740 uM,109 and 90.36 and 103.8 and 84.25 and 83.27 and 86.47 and 94.66 and 88.64 and 73.11
same,"P. berghei liver stage growth, dose-response data points (Figure 3A)",[3]; 0.137174210 uM,94.49 and 73.84 and 68.67 and 79.23 and 76.1 and 53.42 and 81.73 and 93.15 and 81.23
same,Figure 3E dose-response value (replicates),[3]; 0.145312500 uM,100.6 and 88.31 and 76.37 and 94.25
same,Figure 3E dose-response value (replicates),[3]; 0.290625000 uM,94.35 and 94.79 and 85.61 and 89.45 and 87.37 and 88.47 and 84.93 and 94.4 and 94.85 and 93.84 and 89.47 and 91.21
same,"P. berghei liver stage growth, dose-response data points (Figure 3A)",[3]; 0.411522630 uM,13.94 and 18.07 and 25.3 and 9.363 and 14.77 and 12.23 and 25.32 and 28.82 and 21.11
same,Figure 3E dose-response value (replicates),[3]; 0.581250000 uM,102.2 and 80.25 and 95.76 and 90.1 and 83.44 and 75.35 and 88.55 and 97.11 and 92.72 and 86.07 and 93.7 and 93.03
same,Figure 3E dose-response value (replicates),[3]; 1.162500000 uM,80.19 and 74.87 and 75.85 and 88.24 and 81.26 and 89.14 and 75.39 and 78.14 and 86.59 and 91.1 and 86.79 and 86.51
same,"P. berghei liver stage growth, dose-response data points (Figure 3A)",[3]; 1.234567900 uM,1.549 (2×) and -1.549 and 0.4997 and 0.5648 and 2.455 and 1.57 and 4.175 and 3.674
same,Figure 3E dose-response value (replicates),[3]; 2.325000000 uM,53.31 and 45.1 and 53.66 and 84.74 and 82.81 and 85.04 and 49.27 and 57.96 and 49.51 and 76.01 and 76.49 and 71.94
same,"P. berghei liver stage growth, dose-response data points (Figure 3A)",[3]; 3.703703700 uM,-1.549 and -0.5164 and -3.614 and 0.04345 and -0.02173 and 0.1086 and 0.3674 and 0.5678 and 1.47
